Among the data in a melting point compilation (Tetko et al.; mined from patent text by program, amines drawn as free bases though some values may be those of a salt) are melting point values, retold here.

Consider `O=C(Nc1ccc(Oc2ccnc(-n3ccnc3)n2)c2ccccc12)c1cc(F)cc(N2CCOCC2)c1`, for which the melting point was in the range of 153 to 154 °C. Then `CC(=NNC(=O)c1ccccc1C)c1ccncc1`, with 187 °C. To `CCOc1nc(NC(CC)CC)c([N+](=O)[O-])c(OCC)n1` belongs 38 to 40 °C. Then `Cc1ccc(Oc2ccc(-n3cnnn3)cc2)c(O)c1`, with 129 to 132 °C; and `COc1ccc(Sc2nc(-c3ccccc3)cnc2N)cc1`, with 116 to 118 °C. `CC(C)(C)NC(=O)N(CCc1ccccc1)CC(O)C(Cc1ccccc1)NC(=O)C(CC(N)=O)NC(=O)c1ccc2ccccc2n1` (configuration not stated) returned a melting point of 139 to 140 °C. Then `NC(=O)Cc1cc(Oc2ccc3c(ccn3C(=O)Nc3ccc(N4CCOCC4)c(C(F)(F)F)c3)c2)ncn1`, with 272 to 275 °C.

Compound `O=C(CNc1ccccc1)Nc1cc(F)c(F)cc1C(=O)O` showed a melting point of 124 to 126 °C.

With `COc1cc(Nc2nccc(Nc3cccc(OC(F)(F)F)c3)n2)cc(OC)c1OC`, the melting point is 154 to 156 °C. Then `N=C(N)NNC1=NS(=O)(=O)c2ccccc21`, with 252 to 253 °C. To `CN(c1cccc2cc(-c3nc(CCC(=O)O)cs3)[nH]c12)S(=O)(=O)c1cccs1` belongs 200 to 201 °C; to `CC(Sc1nc(N)cc(Cl)n1)c1nccc2ccccc12` (configuration not stated), 179 to 180 °C. To `CC(C)c1ccc(N(C)C)c(C(C)C)c1NC(=O)CN1CCN(CCSc2nc3ccccc3o2)CC1` belongs 159 to 161 °C; to `CC(C)Oc1cc(COc2cc(CCC(=O)O)n(C)n2)cc(COc2ccc(Cl)cc2Cl)c1`, 105 to 106 °C; to `CCOC(=O)C1=C(N)NC(N)=C(C(=O)OCC)C1c1ccc(SC)cc1`, 127 °C. On to `CCn1c(=O)c(C(=O)NCCO)c(NCCO)c2cnc(-c3ccccc3)nc21`, for which the melting point lay within 250 to 253 °C. In turn, `COc1cc2c(cc1OC)-c1ccc(OC)c(OC)c1C2=O` registered a melting point of 208 to 209 °C. Then `CC(C)(CCN1CCc2ccc(S(=O)(=O)Nc3cccc(Cl)c3)cc2C1)C(=O)O`, with 120 °C; and `CN1CCOc2ccc(N)cc2C1=O`, with 165 °C. To `COc1cc(N2CCC(N3CCN(C)CC3)CC2)ccc1Nc1ncc2ccc(Br)n2n1` belongs 171 to 173 °C; to `COc1ccc(Cl)c2oc(-c3ccc(S(N)(=O)=O)cc3)c(-c3ccc(F)cc3)c(=O)c12`, 279 to 281 °C; to `O=C(Nc1ccc2nc(CN3CCCC3)ccc2c1)c1ccc(-c2ccc(Cl)cc2)cc1`, 200 to 202 °C.

Compound `Cc1ccc(-c2nc(-c3ccc(C(=O)NCCCBr)cc3)cs2)cc1` registered a melting point of 175 to 177 °C. For the compound `Cc1ccccc1CNC(=O)c1ccc2cnccc2n1`, the melting point is 120 to 121 °C. As for `O=C1NCCN(Cc2ccc(OCc3ccccc3)cc2)C1c1ccccc1` (configuration not stated), the melting point was in the range of 207 to 211 °C. To `O=S1Cc2ccccc2-c2ccccc21` (configuration not stated) belongs 97 to 100 °C; to `O=C(O)c1c(Br)c(Br)cc2c1OCCO2`, 212 °C.

Regarding `CN(C)C(=O)CCCCCCCCCCCCO`, the melting point lay in the range of 69 to 71 °C. For the compound `O=C1CCC(N2C(=O)c3ccc(CNC(=O)c4ccc(Cl)c(Cl)c4)cc3C2=O)C(=O)N1` (configuration not stated), the melting point is 253 to 255 °C. To `CCNC(=S)NS(=O)(=O)c1cc(CCNC(=O)c2cc(Cl)ccc2OC)ccc1-c1ccccc1` belongs 168 to 170 °C; to `CCOc1ccc(C(=O)NC2N(C)C(c3ccc(F)cc3)=NC2(C(F)(F)F)C(F)(F)F)cc1` (configuration not stated), 115 to 116 °C. `CC(C)NC(=O)c1c(F)cccc1S(=O)C(C)(C)C` (configuration not stated): the melting point was 120 to 135 °C. Then `Cc1cc(OS(=O)(=O)c2c(F)cccc2F)cc2c(C3CCN(C)CC3)cn(C)c12`, with 139 °C; and `CC(C(=O)O)C(=O)NCCC=C1c2ccccc2CCc2ccccc21` (configuration not stated), with 174 to 176 °C; and `C=C(c1ccc(Br)cc1)c1ccc(OC)cc1`, with 91.2 to 92.6 °C. `Cc1cccc(C(=O)C=CN(C)C)n1` returned a melting point of 97 to 98 °C. On to `O=C(O)CSc1cccc(CNC(=O)C2Cc3ccccc3N2S(=O)(=O)c2ccc(-c3cccc(C(F)(F)F)c3)cc2)c1` (configuration not stated), for which the melting point is 75 °C. To `O=S(=O)(Nc1nc(Cl)cnc1OCc1ccco1)c1ccc(Cl)s1` belongs 130 to 133 °C. To `COC(=O)N(C(=O)C(=O)c1cn(Cc2ccc(Cl)cc2)c2ccccc12)c1ccc2ncccc2c1` belongs 178 °C; to `O=C(O)CN1CC2(CCCCC2)N(c2ccccc2)CC1=O`, 167 to 169 °C; to `Cc1oncc1C(=O)Nc1ccc(-n2nc(C(F)(F)F)cc2C2CC2)c(F)c1`, 125 to 128 °C. To `NC(CSCc1ccccc1C(=O)O)C(=O)O` (configuration not stated) belongs 252 to 254 °C. Compound `COc1cc(C(C)C)c2c(c1)S(=O)(=O)N(COC(=O)c1ccsc1)C2=O` gave a melting point of 125 to 127 °C. Then `CC(C)(C)NC(=O)[C@@H]1CCCN1C(=O)[C@@H](O)[C@@H](N)Cc1ccccc1`, with 159 to 161 °C; and `CNC(=O)[C@@H]1C[C@H](SCc2ccc(OC)cc2)CN1CCO`, with 88 to 89.5 °C. To `Cc1cc(F)ccc1-c1nc(NCCO)nc2c1ccc(=O)n2-c1ccccc1F` belongs 120 to 124 °C. Turning to `O=C1CCCc2cc(OCCCCl)ccc21`, the melting point lay within 85 to 87 °C. To `O=C(Nc1c(C(O)(C(F)(F)F)C(F)(F)F)ccc2ccccc12)c1cccc(C(F)(F)F)c1` belongs 187 to 188 °C; to `Clc1ccc(-c2cc(-c3ccccc3)c(-c3ccccc3)s2)cc1`, 115 to 117 °C; to `CC(C)(C)c1cc(C(c2ccccc2)N2CCCCC2)c(O)c(C(C)(C)C)c1` (configuration not stated), 140 to 141 °C. To `CCON=C1CN(c2c(F)c(N)c3c(=O)c(C(=O)O)cn(C4CC4)c3c2F)CC12CN(C(=O)OC(C)(C)C)C2` belongs 235 to 236 °C; to `Oc1ccc(O)c(-c2ccc(Cl)cc2Cl)c1`, 82 to 86 °C.

Compound `CSC(=NCC(C)C)Nc1cc(Cl)cc(Cl)c1` yielded a melting point of 150 °C. Then `CS(=O)(=O)c1ccc(-c2cc(CCO[N+](=O)[O-])nn2C2CCCCC2)cc1`, with 117 °C; and `NC(=O)C(c1ccccc1)(c1ccccc1)[C@@H]1CCNC1`, with 128 to 132 °C.

`CC(C)(C)NC(=O)C#CBr`: the melting point turned out to be 113 °C. Then `CC(C)(C)Cc1ccc(C(=O)c2ccccc2C(=O)O)cc1`, with 154 °C; and `CC(C)(CO)c1ccc(C#N)cc1`, with 70 to 82 °C; and `Cc1c(NC(=O)c2ccc(-c3ccc(F)cc3F)cc2F)ccc2cc(CN3CCCC3)cnc12`, with 172 to 173 °C. Then `CC(=O)N(O)Cc1ccccc1Nc1c(Cl)cccc1Cl`, with 165 to 171 °C; and `CC(COc1ccc(CC2SC(=O)NC2=O)cc1)NCC(O)CSc1ccccc1` (configuration not stated), with 176 to 177 °C. To `CSc1c[nH]c2ccc(C)cc12` belongs 136 to 137 °C.

Broadly, the melting point is the temperature of the solid-liquid transition.
